Data: ChEMBL document CHEMBL1124088, “Synthesis and evaluation of 3-substituted analogues of 1,2,3,4-tetrahydroisoquinoline as inhibitors of phenylethanolamine N-methyltransferase” (J Med Chem, 1988)

Assays:
[1] = target: T1, Phenylethanolamine N-methyltransferase (Bos taurus, UniProt P10938); test: In vitro inhibitory activity measured against bovine adrenal phenylethanolamine N-methyltransferase(PNMT)
T1 sequence (P10938 whole entry): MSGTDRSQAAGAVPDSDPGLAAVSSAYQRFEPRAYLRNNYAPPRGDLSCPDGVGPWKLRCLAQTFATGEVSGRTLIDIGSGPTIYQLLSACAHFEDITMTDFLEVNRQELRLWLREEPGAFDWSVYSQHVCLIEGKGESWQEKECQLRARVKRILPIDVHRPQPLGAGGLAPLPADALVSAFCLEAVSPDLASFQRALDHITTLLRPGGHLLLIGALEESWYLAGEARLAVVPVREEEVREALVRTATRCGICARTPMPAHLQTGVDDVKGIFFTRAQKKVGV

[2] = target: T1, Phenylethanolamine N-methyltransferase; test: In vitro inhibitory activity measured against bovine adrenal phenylethanolamine N-methyltransferase(PNMT); Ki values determined at incubation times of 5, 10, 15, 20 and 30 min

Ki [1] [µM]	Ki [2] [µM]	SMILES
0.38	–	OCC1Cc2ccc(Cl)c(Cl)c2CN1 (configuration not stated)
40.5	–	NC(=O)C1Cc2ccccc2CN1 (configuration not stated)
2.4	–	OCC1Cc2ccccc2CN1 (configuration not stated)
–	69.5	COC(=O)C1Cc2ccccc2CN1 (configuration not stated)
> 2000	–	O=C(O)C1Cc2ccccc2CN1 (configuration not stated)

SMILES	Ki [1] [µM]	Ki [2] [µM]
CCC1Cc2ccccc2CN1 (configuration not stated)	23.9	–
Clc1ccc2c(c1Cl)CNCC2	0.24	–
